Measured values reported in patent US20250145598A1, “ACID CERAMIDASE INHIBITORS AND USES THEREOF” (The Regents of the University of California, priority 2021, published 2025).

Each compound was assayed against T1, Acid ceramidase (Homo sapiens, UniProt Q13510) (assay: Acid ceramidase assay (AC in vitro IC50)). Details: Acid ceramidase assay data of example compounds.
T1 sequence (Q13510 22-395): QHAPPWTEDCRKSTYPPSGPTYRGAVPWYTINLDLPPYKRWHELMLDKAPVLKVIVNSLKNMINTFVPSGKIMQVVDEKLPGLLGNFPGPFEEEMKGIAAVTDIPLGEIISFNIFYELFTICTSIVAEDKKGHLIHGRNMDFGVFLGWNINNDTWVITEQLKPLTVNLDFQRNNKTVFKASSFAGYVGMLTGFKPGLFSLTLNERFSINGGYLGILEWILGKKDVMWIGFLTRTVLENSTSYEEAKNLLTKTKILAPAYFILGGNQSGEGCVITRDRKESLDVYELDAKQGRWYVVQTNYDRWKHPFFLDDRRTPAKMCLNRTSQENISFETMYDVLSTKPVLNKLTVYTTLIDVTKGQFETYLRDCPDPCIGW
Assay type: biochemical

IC50, < 300 nM:
CS(=O)(=O)c1ccc(COc2ccc(-c3cn(C(=O)NCC4CN(c5cccc(Cl)c5)C4)cn3)cc2)cc1 [AC2020601-0407, N-((1-(3-chlorophenyl)azetidin-3-yl)methyl)-4-(4-((4-(methylsulfonyl)benzyl)oxy)phenyl)-1H-imidazole-1-carboxamide]
CS(=O)(=O)c1ccc(C(CO)Oc2ccc(-c3cn(C(=O)NCC4CCN(c5ccccc5)C4)cn3)cc2)cc1 (stereo not shown) [AC2020601-0428, 4-(4-(2-hydroxy-1-(4-(methylsulfonyl)phenyl)ethoxy)phenyl)-N-((1-phenylpyrrolidin-3-yl)methyl)-1H-imidazole-1-carboxamide]
CCS(=O)(=O)c1ccc(COc2ccc(-c3cn(C(=O)NCC4CCN(c5ccccc5)C4)cn3)cc2)c(C#N)c1 (stereo not shown) [AC2020601-0430, 4-(4-((2-cyano-4-(ethylsulfonyl)benzyl)oxy)phenyl)-N-((1-phenylpyrrolidin-3-yl)methyl)-1H-imidazole-1-carboxamide]
CCS(=O)(=O)c1ccc(COc2ccc(-c3cn(C(=O)NCC4CCN(c5ccccc5)C4)cn3)cc2)c(C(N)=O)c1 (stereo not shown) [AC2020601-0431, 4-(4-(2-carbamoyl-4-(ethylsulfonyl)benzyloxy)phenyl)-N-((1-phenylpyrrolidin-3-yl)methyl)-1H-imidazole-1-carboxamide]
CN1CCN(c2cccc(COc3ccc(-c4cn(C(=O)NCC5CCN(c6ccccc6)C5)cn4)cc3)c2)CC1=O (stereo not shown) [AC2020601-0434, 4-(4-(3-(4-methyl-3-oxopiperazin-1-yl)benzyloxy)phenyl)-N-((1-phenylpyrrolidin-3-yl)methyl)-1H-imidazole-1-carboxamide]
O=C(Nc1ccc(COc2ccc(-c3cn(C(=O)NCC4CCN(c5ccccc5)C4)cn3)cc2)cc1)C1CC1 (stereo not shown) [AC2020601-0437, 4-(4-((4-(cyclopropanecarboxamido)benzyl)oxy)phenyl)-N-((1-phenylpyrrolidin-3-yl)methyl)-1H-imidazole-1-carboxamide]
NC(=O)c1cccnc1COc1ccc(-c2cn(C(=O)NCC3CCN(c4ccccc4)C3)cn2)cc1 (stereo not shown) [AC2020601-0438, 2-((4-(1-(((1-phenylpyrrolidin-3-yl)methyl)carbamoyl)-1H-imidazol-4-yl)phenoxy)methyl)nicotinamide]
O=C(NCC1CCN(c2ccccc2)C1)n1cnc(-c2ccc(OC3CCc4cc(F)ccc43)cc2)c1 (stereo not shown) [AC2020601-0439, 4-(4-((5-fluoro-2,3-dihydro-1H-inden-1-yl)oxy)phenyl)-N-((1-phenylpyrrolidin-3-yl)methyl)-1H-imidazole-1-carboxamide]
CS(=O)(=O)c1ccc(COc2ccc(-c3cn(C(=O)NCC4CC(=O)N(c5ccccc5)C4)cn3)cc2)cc1 (stereo not shown) [AC2020601-0443, 4-(4-((4-(methylsulfonyl)benzyl)oxy)phenyl)-N-((5-oxo-1-phenylpyrrolidin-3-yl)methyl)-1H-imidazole-1-carboxamide]
CS(=O)(=O)c1ccc(COc2ccc(-c3cn(C(=O)NCC4CCN(c5ccccc5)C4)cn3)cc2)cn1 (stereo not shown) [AC2020601-0444, 4-(4-((6-(methylsulfonyl)pyridin-3-yl)methoxy)phenyl)-N-((1-phenylpyrrolidin-3-yl)methyl)-1H-imidazole-1-carboxamide]
CS(=O)(=O)c1ccc(COc2ccc(-c3cn(C(=O)NCC4CCN(c5ccccc5)C4)cn3)cc2)nc1 (stereo not shown) [AC2020601-0445, 4-(4-((5-(methylsulfonyl)pyridin-2-yl)methoxy)phenyl)-N-((1-phenylpyrrolidin-3-yl)methyl)-1H-imidazole-1-carboxamide]
Cn1cnc(COc2ccc(-c3cn(C(=O)NCC4CCN(c5ccccc5)C4)cn3)cc2)n1 (stereo not shown) [AC2020601-0447, 4-(4-((1-methyl-1H-1,2,4-triazol-3-yl)methoxy)phenyl)-N-((1-phenylpyrrolidin-3-yl)methyl)-1H-imidazole-1-carboxamide]
CC(C)n1ccc(COc2ccc(-c3cn(C(=O)NCC4CCN(c5ccccc5)C4)cn3)cc2)n1 (stereo not shown) [AC2020601-0448, 4-(4-((1-isopropyl-1H-pyrazol-3-yl)methoxy)phenyl)-N-((1-phenylpyrrolidin-3-yl)methyl)-1H-imidazole-1-carboxamide]
CN1CCN(c2cccc(COc3ccc(-c4cn(C(=O)NCC5CN(c6ccccc6)C5)cn4)cc3)c2)CC1=O [AC2020601-0449, 4-(4-(3-(4-methyl-3-oxopiperazin-1-yl)benzyloxy)phenyl)-N-((1-phenylazetidin-3-yl)methyl)-1H-imidazole-1-carboxamide]
N#Cc1cccnc1COc1ccc(-c2cn(C(=O)NCC3CCN(c4ccccc4)C3)cn2)cc1 (stereo not shown) [AC2020601-0451, 4-(4-((3-cyanopyridin-2-yl)methoxy)phenyl)-N-((1-phenylpyrrolidin-3-yl)methyl)-1H-imidazole-1-carboxamide]
CS(=N)(=O)c1ccc(COc2ccc(-c3cn(C(=O)NCC4CCN(c5ccccc5)C4)cn3)cc2)cc1 (stereo not shown) [AC2020601-0452, 4-(4-((4-(S-methylsulfonimidoyl)benzyl)oxy)phenyl)-N-((1-phenylpyrrolidin-3-yl)methyl)-1H-imidazole-1-carboxamide]
CS(=O)(=O)c1ccc(COc2ccccc2-c2cn(C(=O)NCC3CN(c4ccccc4)C3)cn2)cc1 [AC2020601-0456, 4-(2-(4-(methylsulfonyl)benzyloxy)phenyl)-N-((1-phenylazetidin-3-yl)methyl)-1H-imidazole-1-carboxamide]
O=C(NCC1CCN(c2ccccc2)C1)n1cnc(-c2ccc(OCc3cccnn3)cc2)c1 (stereo not shown) [AC2020601-0472, N-((1-phenylpyrrolidin-3-yl)methyl)-4-(4-(pyridazin-3-ylmethoxy)phenyl)-1H-imidazole-1-carboxamide]
CS(=O)(=O)c1ncc(COc2ccc(-c3cn(C(=O)NCC4CCN(c5ccccc5)C4)cn3)cc2)cn1 (stereo not shown) [AC2020601-0477, 4-(4-((2-(methylsulfonyl)pyrimidin-5-yl)methoxy)phenyl)-N-((1-phenylpyrrolidin-3-yl)methyl)-1H-imidazole-1-carboxamide]
CC(C)n1cncc1COc1ccc(-c2cn(C(=O)NCC3CCN(c4ccccc4)C3)cn2)cc1 (stereo not shown) [AC2020601-0478, 4-(4-((1-isopropyl-1H-imidazol-5-yl)methoxy)phenyl)-N-((1-phenylpyrrolidin-3-yl)methyl)-1H-imidazole-1-carboxamide]
Cn1nc(C(F)(F)F)cc1COc1ccc(-c2cn(C(=O)NCC3CCN(c4ccccc4)C3)cn2)cc1 (stereo not shown) [AC2020601-0481, 4-(4-((1-methyl-3-(trifluoromethyl)-1H-pyrazol-5-yl)methoxy)phenyl)-N-((1-phenylpyrrolidin-3-yl)methyl)-1H-imidazole-1-carboxamide]
CCS(=O)(=O)c1ccc(COc2ccc(-c3cn(C(=O)NCC4CCN(c5ccccc5)C4)cn3)cc2)nn1 (stereo not shown) [AC2020601-0482, 4-(4-((6-(ethylsulfonyl)pyridazin-3-yl)methoxy)phenyl)-N-((1-phenylpyrrolidin-3-yl)methyl)-1H-imidazole-1-carboxamide]
Cn1ncc(COc2ccc(-c3cn(C(=O)NCC4CCN(c5ccccc5)C4)cn3)cc2)n1 (stereo not shown) [AC2020601-0488, 4-(4-((2-methyl-2H-1,2,3-triazol-4-yl)methoxy)phenyl)-N-((1-phenylpyrrolidin-3-yl)methyl)-1H-imidazole-1-carboxamide]
Cn1cc(COc2ccc(-c3cn(C(=O)NCC4CCN(c5ccccc5)C4)cn3)cc2)nn1 (stereo not shown) [AC2020601-0489, 4-(4-((1-methyl-1H-1,2,3-triazol-4-yl)methoxy)phenyl)-N-((1-phenylpyrrolidin-3-yl)methyl)-1H-imidazole-1-carboxamide]
Cc1nnc(COc2ccc(-c3cn(C(=O)NCC4CCN(c5ccccc5)C4)cn3)cc2)o1 (stereo not shown) [AC2020601-0491, 4-(4-((5-methyl-1,3,4-oxadiazol-2-yl)methoxy)phenyl)-N-((1-phenylpyrrolidin-3-yl)methyl)-1H-imidazole-1-carboxamide]
CS(=O)(=O)c1ccc(COc2ccc(-c3cn(C(=O)NCC4CCN(c5cccc(C#N)c5)C4)cn3)cc2)cc1 (stereo not shown) [AC2020601-0494, N-((1-(3-cyanophenyl)pyrrolidin-3-yl)methyl)-4-(4-(4-(methylsulfonyl)benzyloxy)phenyl)-1H-imidazole-1-carboxamide]
CS(=O)(=O)c1ccc(COc2ccc(-c3cn(C(=O)NCC4CCN(c5cc(F)ccc5F)C4)cn3)cc2)cc1 (stereo not shown) [AC2020601-0496, N-((1-(2,5-difluorophenyl)pyrrolidin-3-yl)methyl)-4-(4-(4-(methylsulfonyl)benzyloxy)phenyl)-1H-imidazole-1-carboxamide]
CS(=O)(=O)c1ccc(COc2ccc(-c3cn(C(=O)NCC4CCN(c5ccc(F)cn5)C4)cn3)cc2)cc1 (stereo not shown) [AC2020601-0497, N-((1-(5-fluoropyridin-2-yl)pyrrolidin-3-yl)methyl)-4-(4-((4-(methylsulfonyl)benzyl)oxy)phenyl)-1H-imidazole-1-carboxamide]
